Measurements from patent publication US8889670B2, “Heterocyclic compounds which modulate the CB2 receptor” (Boehringer Ingelheim International GmbH, priority 2009, dated 2014).

Target: T1, human CB2R (Homo sapiens, UniProt P34972)
T1 construct: host or cells: CHO cells
Assay: CB2R mediated modulation of cAMP synthesis (forskolin-stimulated cAMP, CHO cells expressing human CB2R)
Assay type: cell-based
Settings: not given
Protocol: B. CB2R Mediated Modulation of cAMP Synthesis:
Compounds of the invention were evaluated for their CB2 agonist or inverse agonistic activity in accordance with the following experimental method.
CHO cells expressing human CB2R (Euroscreen) were plated at a density of 5000 cells per well in 384 well plates and incubated overnight at 37° C. After removing the media, the cells were treated with test compounds diluted in stimulation buffer containing 1 mM IBMX, 0.25% BSA and 10 uM Forskolin. The assay was incubated for 30 minutes at 37° C. Cells were lysed and the cAMP concentration was measured using DiscoverX-XS cAMP kit, following the manufacturer's protocol. In this setting, agonists will decrease forskolin induced production of cAMP while inverse agonists will further increase forskolin induced production of cAMP. EC50 of agonists were calculated as follows. The maximal amount of cAMP produced by forskolin compared to the level of cAMP inhibited by 1 uM CP55940 is defined as 100%. […] Data was analyzed using a four-parameter logistic model. (Model 205 of XLfit 4.0).

T1 sequence (P34972 whole entry): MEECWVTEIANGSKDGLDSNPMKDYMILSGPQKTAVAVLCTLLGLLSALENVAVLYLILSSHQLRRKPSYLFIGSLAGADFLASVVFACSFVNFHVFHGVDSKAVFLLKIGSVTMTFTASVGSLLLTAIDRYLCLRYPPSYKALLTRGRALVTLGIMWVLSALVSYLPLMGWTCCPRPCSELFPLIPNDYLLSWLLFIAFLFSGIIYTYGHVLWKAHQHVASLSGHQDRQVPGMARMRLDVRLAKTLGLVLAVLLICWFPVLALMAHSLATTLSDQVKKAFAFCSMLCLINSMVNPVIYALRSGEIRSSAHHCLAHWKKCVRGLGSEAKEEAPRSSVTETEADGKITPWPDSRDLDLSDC

SMILES | EC50 [nM]
CC(C)(C)c1cc(NC(=O)[C@@H]2CCCN(C(=O)C3CCC(F)(F)CC3)C2)no1 [(R)-1-(4,4-Difluoro-cyclohexanecarbonyl)-piperidine-3-carboxylic acid (5-tert-butyl-isoxazol-3-yl)-amide] | 42
CC(C)(C)c1cc(NC(=O)[C@@H]2CCCCCN2CC2CCOCC2)no1 [(S)-1-(Tetrahydro-pyran-4-ylmethyl)-azepane-2-carboxylic acid (5-tert-butyl-isoxazol-3-yl)-amide] | 0.03
O=C(Nc1ccc(F)c(C(F)(F)F)c1)[C@@H]1CCCCN1CC1CCOCC1 [(S)-1-(Tetrahydro-pyran-4-ylmethyl)-piperidine-2-carboxylic acid (4-fluoro-3-trifluoromethyl-phenyl)-amide] | 26
CC(C)(C)c1cc(NC(=O)[C@@H]2CCCCN2C(=O)N2CCC(F)(F)CC2)no1 [(S)-1-(4,4-Difluoro-piperidine-1-carbonyl)-piperidine-2-carboxylic acid (5-tert-butyl-isoxazol-3-yl)-amide] | 3.7
O=C(Nc1nc2cc(Cl)ccc2[nH]1)[C@@H]1CCCCN1C(=O)N1CCS(=O)(=O)CC1 [(S)-1-(1,1-Dioxo-1λ^6-thiomorpholine-4-carbonyl)-piperidine-2-carboxylic acid (5-chloro-1H-benzimidazol-2-yl)-amide] | 77
O=C(Nc1nc2cc(F)ccc2s1)[C@@H]1CCCCN1C(=O)N1CCS(=O)(=O)CC1 [(S)-1-(1,1-Dioxo-1λ^6-thiomorpholine-4-carbonyl)-piperidine-2-carboxylic acid (5-fluoro-benzothiazol-2-yl)-amide] | 56
O=C(Nc1nc2c(F)cccc2s1)[C@@H]1CCCCN1CC1CCOCC1 [(S)-1-(Tetrahydro-pyran-4-ylmethyl)-piperidine-2-carboxylic acid (4-fluoro-benzothiazol-2-yl)-amide] | 1.3
CC(C)(C)c1cc(NC(=O)[C@@H]2C[C@@H](O)CCN2c2ncc(C(F)(F)F)cc2Cl)no1 [(2S,4S)-3′-Chloro-4-hydroxy-5′-trifluoromethyl-3,4,5,6-tetrahydro-2H-[1,2′]bipyridinyl-2-carboxylic acid (5-tert-butyl-isoxazol-3-yl)-amide] | 0.3
CC(C)(C)c1cc(NC(=O)C2CCCN(S(=O)(=O)c3ccc(Cl)cc3)C2)no1 (centres unmarked) [1-(4-Chloro-benzenesulfonyl)-piperidine-3-carboxylic acid (5-tert-butyl-isoxazol-3-yl)-amide] | 12
O=C(Nc1nc(-c2ccc(F)c(F)c2)cs1)[C@@H]1CCCCN1CC1CCOCC1 [(S)-1-(Tetrahydro-pyran-4-ylmethyl)-piperidine-2-carboxylic acid [4-(3,4-difluoro-phenyl)-thiazol-2-yl]-amide] | 3.6
CC(C)(C)c1cc(NC(=O)[C@@H]2CCCCN2C(=O)CN2CCC(F)(F)C2)no1 [(S)-1-[2-(3,3-Difluoro-pyrrolidin-1-yl)-acetyl]-piperidine-2-carboxylic acid (5-tert-butyl-isoxazol-3-yl)-amide] | 2.9
CC(C)(C)c1cc(NC(=O)C2CCCCN2C(=O)C2CCC(F)(F)CC2)no1 (centres unmarked) [1-(4,4-Difluoro-cyclohexanecarbonyl)-piperidine-2-carboxylic acid (5-tert-butyl-isoxazol-3-yl)-amide] | 11
CC(C)(C)c1nsc(NC(=O)[C@@H]2CCCCN2CC2CCOCC2)n1 [(S)-1-(Tetrahydro-pyran-4-ylmethyl)-piperidine-2-carboxylic acid (3-tert-butyl-1,2,4-thiadiazol-5-yl)-amide] | 12

Same assay, conditions: agonist EC50, inhibition of forskolin-stimulated cAMP synthesis; CHO cells expressing human CB2R; mean; read-out: CB2 CAMP @ EC50 nM (mean)

EC50 [nM] | SMILES
22 | O=C(Nc1nc(-c2ccc(F)cc2)ns1)[C@@H]1CCCCN1C(=O)N1CCS(=O)(=O)CC1 [(S)-1-(1,1-Dioxo-1λ^6-thiomorpholine-4-carbonyl)-piperidine-2-carboxylic acid [3-(4-fluoro-phenyl)-[1,2,4]thiadiazol-5-yl]-amide]
53 | CC(C)(C)c1nnc(NC(=O)[C@@H]2CCCCN2C(=O)N2CCS(=O)(=O)CC2)s1 [(S)-1-(1,1-Dioxo-1λ^6-thiomorpholine-4-carbonyl)-piperidine-2-carboxylic acid (5-tert-butyl-1,3,4-thiadiazol-2-yl)-amide]
131 | O=C(Nc1nc2ccc(Cl)cc2s1)[C@@H]1CCCCN1CC1CCOCC1 [(S)-1-(Tetrahydro-pyran-4-ylmethyl)-piperidine-2-carboxylic acid (6-chloro-benzothiazol-2-yl)-amide]
8.6 | CCn1nc(NC(=O)[C@@H]2CCCCN2CC2CCOCC2)nc1-c1ccccc1 [(S)-1-(Tetrahydro-pyran-4-ylmethyl)-piperidine-2-carboxylic acid (1-ethyl-5-phenyl-1H-1,2,4-triazol-3-yl)-amide]
9.9 | O=C(Nc1nc(-c2ccccc2)cs1)[C@@H]1CCCCN1CC1CCOCC1 [(S)-1-(Tetrahydro-pyran-4-ylmethyl)-piperidine-2-carboxylic acid (4-phenyl-thiazol-2-yl)-amide]
365 | CCn1nc(NC(=O)[C@@H]2CCCCN2C(=O)CC2CCS(=O)(=O)C2)nc1-c1ccccc1 (stereo partly drawn) [(S)-1-[2-(1,1-Dioxo-tetrahydro-1λ^6-thiophen-3-yl)-acetyl]-piperidine-2-carboxylic acid (1-ethyl-5-phenyl-1H-1,2,4-triazol-3-yl)-amide]
20 | COc1ccc(-c2nsc(NC(=O)[C@@H]3CCCCN3C(=O)N3CCS(=O)(=O)CC3)n2)cc1 [(S)-1-(1,1-Dioxo-1λ^6-thiomorpholine-4-carbonyl)-piperidine-2-carboxylic acid [3-(4-methoxy-phenyl)-[1,2,4]thiadiazol-5-yl]-amide]
1.8 | O=C(Nc1ccc(C(F)(F)F)c(F)c1)[C@@H]1CCCCN1CC1CCOCC1 [(S)-1-(Tetrahydro-pyran-4-ylmethyl)-piperidine-2-carboxylic acid (3-fluoro-4-trifluoromethyl-phenyl)-amide]

SMILES | EC50 [nM]
CCn1nc(NC(=O)[C@@H]2CCCCN2C(=O)N2CCS(=O)(=O)CC2)nc1-c1ccccc1 [(S)-1-(1,1-Dioxo-1λ^6-thiomorpholine-4-carbonyl)-piperidine-2-carboxylic acid (1-ethyl-5-phenyl-1H-1,2,4-triazol-3-yl)-amide] | 135
O=C(Nc1nc2cc(F)c(F)cc2s1)[C@@H]1CCCCN1C(=O)N1CCS(=O)(=O)CC1 [(S)-1-(1,1-Dioxo-1λ^6-thiomorpholine-4-carbonyl)-piperidine-2-carboxylic acid (5,6-difluoro-benzothiazol-2-yl)-amide] | 448
CC(C)c1nsc(NC(=O)[C@@H]2CCCCN2CC2CCOCC2)n1 [(S)-1-(Tetrahydro-pyran-4-ylmethyl)-piperidine-2-carboxylic acid (3-isopropyl-1,2,4-thiadiazol-5-yl)-amide] | 208
CCn1nc(NC(=O)[C@@H]2CCCCN2C(=O)CN2CCC(F)(F)C2)nc1-c1ccccc1 [(S)-1-[2-(3,3-Difluoro-pyrrolidin-1-yl)-acetyl]-piperidine-2-carboxylic acid (1-ethyl-5-phenyl-1H-1,2,4-triazol-3-yl)-amide] | 262
CC(C)(C)c1cc(NC(=O)[C@@H]2CCCCN2C(=O)CN2CCCC2)no1 [(S)-1-(2-Pyrrolidin-1-yl-acetyl)-piperidine-2-carboxylic acid (5-tert-butyl-isoxazol-3-yl)-amide] | 431
